Data taken from patent US20210169984A1, “SENSITIZING CANCER TO DEATH RECEPTOR AGONISTS WITH KINASE INHIBITORS” (The Johns Hopkins University, priority 2016, published 2021).
Where a name gives a salt, the structure may show the parent alone.

How the values were obtained:
Format in all cases: cell-based, human
[1] = tested on: LNCAP prostate adenocarcinoma cells; assay: KI library screen for TRAIL sensitization
Description: (§1) A library of KIs was screened for TRAIL sensitization in various TRAIL-resistant cancer cells, including: HT29 (CRC), MDA-MB-231 (breast), LNCAP (prostate), DU145 (prostate), PC3 (prostate) and A549 (lung). […] The 355 KIs comprised of compounds targeting diverse kinases, including multi kinases, RTK (receptor kinase tyrosine), PI3K (phosphinistide 3-kinase), aurora kinases, including […] (mitogen-activated protein kinase). […] The interaction between KIs and TRAIL had been previously explored in vitro with the tyrosine KI sorafenib, a drug similar to regorafenib. However, such studies were mostly performed on cellular levels and not in in vivo models, combined with systemically administered recombinant TRAIL. Although a similar structure, regorafenib was newly approved in 2012. The interactions between the three other selected KIs and TRAIL have not been previously reported, in vitro or in vivo.

[2] = tested on: MDA-MB-231 breast cancer cells; assay: KI library screen for TRAIL sensitization
Description: as §1

[3] = tested on: A549 lung carcinoma cells; assay: KI library screen for TRAIL sensitization
Description: as §1

[4] = tested on: HP LNCAP prostate adenocarcinoma cells; assay: KI library screen for TRAIL sensitization
Description: as §1
Regorafenib potentiated TRAIL-induced apoptosis in prostate cancer cells (LNCAP, HPLNCAP (High Passages LNCAP), DU-145 and PC-3) when combined with TRAILPEG (1 μg/mL) (FIG. 5). After treating cells with regorafenib (5 μM), caspases and anti-apoptotic proteins were analyzed by western blotting (FIG. 6A-FIG. 6C). […] Data confirmed that FDA-approved KIs or KIs under clinical development synergized with long-acting TRAILPEG by overcoming TRAIL-resistance through unique TRAIL sensitization mechanisms.

[5] = tested on: HT29 (CRC) cells; assay: KI library screen for TRAIL sensitization (KI pretreatment, then TRAILPEG; MTT cell death assay); conditions: for efficacy when combined with TRAILPEG (relative cell death, KI+TRAILPEG / KI alone): HT29 cells pretreated with KI for 24 hours before TRAILPEG; for KIs that sensitize cancer cells to TRAIL-based agents: HT-29 colorectal adenocarcinoma
Description: The screening is performed using an MTT cell death assay in CRC cells with different TRAIL sensitivities.

C[C@]1(O)C[C@@H](c2nc(-c3ccc4ccc(-c5ccccc5)nc4c3)c3c(N)nccn32)C1 [OSI-906 (Linsitinib), Linsitinib]
KIs that sensitize cancer cells to TRAIL-based agents [1]: Example KIs that sensitize cancer cells to TRAIL-based agents.

C=CC(=O)Nc1cc2c(Nc3ccc(F)c(Cl)c3)ncnc2cc1OCCCN1CCOCC1 [Canertinib (CI-1033), Canertinib]
KIs that sensitize cancer cells to TRAIL-based agents [2]: Example KIs that sensitize cancer cells to TRAIL-based agents.

CN1CC[C@H](c2c(O)cc(O)c3c(=O)cc(-c4ccccc4Cl)oc23)[C@H](O)C1 [Flavopiridol HCl]
KIs that sensitize cancer cells to TRAIL-based agents [2]: Example KIs that sensitize cancer cells to TRAIL-based agents.
KIs that sensitize cancer cells to TRAIL-based agents [3]: Example KIs that sensitize cancer cells to TRAIL-based agents.

COc1cc2nccc(Oc3ccc(NC(=O)NC4CC4)c(Cl)c3)c2cc1C(N)=O [Lenvatinib (E7080), Lenvatinib]
KIs that sensitize cancer cells to TRAIL-based agents [4]: Example KIs that sensitize cancer cells to TRAIL-based agents.

O=C1NCCc2[nH]c(-c3ccncc3)cc21 [PHA-767491]
KIs that sensitize cancer cells to TRAIL-based agents [2]: Example KIs that sensitize cancer cells to TRAIL-based agents.

Cc1ncc(-c2ccnc(Nc3ccc(S(C)(=O)=O)cc3)n2)n1C(C)C [AZD5438]
KIs that sensitize cancer cells to TRAIL-based agents [3]: Example KIs that sensitize cancer cells to TRAIL-based agents.

Cn1c(=O)n(-c2ccc(C(C)(C)C#N)cc2)c2c3cc(-c4cnc5ccccc5c4)ccc3ncc21 [BEZ235 (NVP-BEZ235, Dactolisib), Dactolisib]
efficacy when combined with TRAILPEG (relative cell death, KI+TRAILPEG / KI alone) [5]: synergistic efficacy
KIs that sensitize cancer cells to TRAIL-based agents [5]: Example KIs that sensitize cancer cells to TRAIL-based agents.

Cc1cc(Nc2nc(N[C@@H](C)c3ccc(F)cc3)c(C#N)cc2F)[nH]n1 [AZ 960]
KIs that sensitize cancer cells to TRAIL-based agents [2]: Example KIs that sensitize cancer cells to TRAIL-based agents.

O=C(NC1CCNCC1)c1[nH]ncc1NC(=O)c1c(Cl)cccc1Cl [AT7519]
KIs that sensitize cancer cells to TRAIL-based agents [3]: Example KIs that sensitize cancer cells to TRAIL-based agents.

CCN1CCN(c2ccc(Nc3cc(N(C)C(=O)Nc4c(Cl)c(OC)cc(OC)c4Cl)ncn3)cc2)CC1 [BGJ398 (NVP-BGJ398)]
KIs that sensitize cancer cells to TRAIL-based agents [3]: Example KIs that sensitize cancer cells to TRAIL-based agents.

Cc1cnc(Nc2ccc(N3CCN(C)CC3)cc2)nc1Nc1cccc(S(=O)(=O)NC(C)(C)C)c1 [TG101209]
KIs that sensitize cancer cells to TRAIL-based agents [2]: Example KIs that sensitize cancer cells to TRAIL-based agents.

CN(c1ncccc1CNc1nc(Nc2ccc3c(c2)CC(=O)N3)ncc1C(F)(F)F)S(C)(=O)=O [PF-00562271]
KIs that sensitize cancer cells to TRAIL-based agents [2]: Example KIs that sensitize cancer cells to TRAIL-based agents.

CC[C@H](Nc1ncnc2[nH]cnc12)c1nc2cccc(F)c2c(=O)n1-c1ccccc1 [CAL-101 (Idelalisib, GS-1101), Idelalisib]
efficacy when combined with TRAILPEG (relative cell death, KI+TRAILPEG / KI alone) [5]: synergistic efficacy
KIs that sensitize cancer cells to TRAIL-based agents [5]: Example KIs that sensitize cancer cells to TRAIL-based agents.

Cc1cc(Nc2cc(N3CCN(C)CC3)nc(/C=C/c3ccccc3)n2)n[nH]1 [ENMD-2076]
efficacy when combined with TRAILPEG (relative cell death, KI+TRAILPEG / KI alone) [5]: synergistic efficacy
KIs that sensitize cancer cells to TRAIL-based agents [5]: Example KIs that sensitize cancer cells to TRAIL-based agents.

CCO.N#CC(=C(/N)Sc1ccccc1N)/C(C#N)=C(\N)Sc1ccccc1N [U0126-EtOH]
efficacy when combined with TRAILPEG (relative cell death, KI+TRAILPEG / KI alone) [5]: synergistic efficacy
KIs that sensitize cancer cells to TRAIL-based agents [5]: Example KIs that sensitize cancer cells to TRAIL-based agents.

CNC(=O)c1nn(C)c2c1C(C)(C)Cc1cnc(Nc3ccc(N4CCN(C)CC4)cc3)nc1-2 [Milciclib (PHA-848125), Milciclib]
KIs that sensitize cancer cells to TRAIL-based agents [2]: Example KIs that sensitize cancer cells to TRAIL-based agents.

N#CC1(c2ccc(NC(=O)c3cccnc3NCc3ccncc3)cc2)CCCC1 [Apatinib]
KIs that sensitize cancer cells to TRAIL-based agents [3]: Example KIs that sensitize cancer cells to TRAIL-based agents.

O=C(Nc1ccc(OC(F)(F)F)cc1)c1sccc1NCc1ccnc2ccccc12 [OSI-930]
efficacy when combined with TRAILPEG (relative cell death, KI+TRAILPEG / KI alone) [5]: synergistic efficacy
KIs that sensitize cancer cells to TRAIL-based agents [5]: Example KIs that sensitize cancer cells to TRAIL-based agents.

CCN(CC)CCNC(=O)c1c(C)[nH]c(/C=C2\C(=O)Nc3ccc(F)cc32)c1C [Sunitinib Malate]
KIs that sensitize cancer cells to TRAIL-based agents [1]: Example KIs that sensitize cancer cells to TRAIL-based agents.

CHIR-98014
KIs that sensitize cancer cells to TRAIL-based agents [2]: Example KIs that sensitize cancer cells to TRAIL-based agents.

CC(C)(C)c1cnc(CSc2cnc(NC(=O)C3CCNCC3)s2)o1 [SNS-032 (BMS-387032)]
KIs that sensitize cancer cells to TRAIL-based agents [2]: Example KIs that sensitize cancer cells to TRAIL-based agents.
KIs that sensitize cancer cells to TRAIL-based agents [3]: Example KIs that sensitize cancer cells to TRAIL-based agents.

Cc1cc(Nc2cc(CN3CCOCC3)c3nc(C)c(Cc4ccc(Cl)cc4F)n3n2)n[nH]1 [LY2784544]
KIs that sensitize cancer cells to TRAIL-based agents [2]: Example KIs that sensitize cancer cells to TRAIL-based agents.

Cc1[nH]nc2ccc(-c3cncc(OC[C@@H](N)Cc4ccccc4)c3)cc12 [A-674563]
KIs that sensitize cancer cells to TRAIL-based agents [2]: Example KIs that sensitize cancer cells to TRAIL-based agents.

COc1cc2ncc(-c3ccccc3)nc2cc1OC [Tyrphostin AG 1296]
KIs that sensitize cancer cells to TRAIL-based agents [1]: Example KIs that sensitize cancer cells to TRAIL-based agents.

CCc1cc(Nc2nccc(-c3c(-c4ccc(OC)c(C(=O)Nc5c(F)cccc5F)c4)nc4ccccn34)n2)c(OC)cc1N1CCC(N2CCN(S(C)(=O)=O)CC2)CC1 [GSK1904529A]
KIs that sensitize cancer cells to TRAIL-based agents [3]: Example KIs that sensitize cancer cells to TRAIL-based agents.

CS(=O)(=O)CCNCc1ccc(-c2ccc3ncnc(Nc4ccc(OCc5cccc(F)c5)c(Cl)c4)c3c2)o1 [Lapatinib (GW-572016) Ditosylate, Lapatinib]
KIs that sensitize cancer cells to TRAIL-based agents [3]: Example KIs that sensitize cancer cells to TRAIL-based agents.
KIs that sensitize cancer cells to TRAIL-based agents [1]: Example KIs that sensitize cancer cells to TRAIL-based agents.

CCOc1cc2ncc(C#N)c(Nc3ccc(F)c(Cl)c3)c2cc1NC(=O)/C=C/CN(C)C [Pelitinib (EKB-569), Pelitinib]
KIs that sensitize cancer cells to TRAIL-based agents [2]: Example KIs that sensitize cancer cells to TRAIL-based agents.

CC(C)CC(=O)Nc1[nH]nc2c1CN(C(=O)C1CCN(C)CC1)C2(C)C [PHA-793887]
KIs that sensitize cancer cells to TRAIL-based agents [2]: Example KIs that sensitize cancer cells to TRAIL-based agents.

N#CCNC(=O)c1ccc(-c2ccnc(Nc3ccc(N4CCOCC4)cc3)n2)cc1 [CYT387]
KIs that sensitize cancer cells to TRAIL-based agents [2]: Example KIs that sensitize cancer cells to TRAIL-based agents.

CC[C@@H]1C(=O)N(C)c2cnc(Nc3ccc(C(=O)N[C@H]4CC[C@H](N5CCN(CC6CC6)CC5)CC4)cc3OC)nc2N1C(C)C [Volasertib (BI 6727), Volasertib]
KIs that sensitize cancer cells to TRAIL-based agents [2]: Example KIs that sensitize cancer cells to TRAIL-based agents.

COc1cc2ncnc(Nc3ccc(Cl)cc3F)c2cc1OC [ZM 306416]
KIs that sensitize cancer cells to TRAIL-based agents [1]: Example KIs that sensitize cancer cells to TRAIL-based agents.

CNC(=O)c1ccc(-c2cnc3ncc(Cc4ccc5ncccc5c4)n3n2)cc1F [INCB28060]
KIs that sensitize cancer cells to TRAIL-based agents [1]: Example KIs that sensitize cancer cells to TRAIL-based agents.

CC[C@H](CO)Nc1nc(NCc2ccccc2)c2ncn(C(C)C)c2n1 [Roscovitine (Seliciclib, CYC202), Roscovitine]
KIs that sensitize cancer cells to TRAIL-based agents [2]: Example KIs that sensitize cancer cells to TRAIL-based agents.

CCCCOc1c(C(=O)c2c(F)cc(C)cc2F)c[nH]c2nncc1-2 [BMS-265246]
KIs that sensitize cancer cells to TRAIL-based agents [2]: Example KIs that sensitize cancer cells to TRAIL-based agents.
KIs that sensitize cancer cells to TRAIL-based agents [3]: Example KIs that sensitize cancer cells to TRAIL-based agents.

Cc1cc(CN2CCN(c3c(Br)cnc4nc(-c5ccc(N6CCN(C)CC6)cc5)[nH]c34)CC2)no1 [CCT137690]
KIs that sensitize cancer cells to TRAIL-based agents [2]: Example KIs that sensitize cancer cells to TRAIL-based agents.

CCS(=O)(=O)c1cccc(-c2cc(C(=O)NC3CCN(C)CC3)c(C)c3[nH]c4ncc(C)cc4c23)c1 [TAK-901]
KIs that sensitize cancer cells to TRAIL-based agents [2]: Example KIs that sensitize cancer cells to TRAIL-based agents.

O=c1[nH]c2ccc(Cl)cc2c(N[C@@H]2CN3CCC2CC3)c1-c1nc2ccccc2[nH]1 [CHIR-124]
KIs that sensitize cancer cells to TRAIL-based agents [2]: Example KIs that sensitize cancer cells to TRAIL-based agents.
KIs that sensitize cancer cells to TRAIL-based agents [3]: Example KIs that sensitize cancer cells to TRAIL-based agents.

Cc1ccc([N+](=O)[O-])cc1S(=O)(=O)N(C)/N=C/c1cnc2ccc(Br)cn12 [PIK-75]
KIs that sensitize cancer cells to TRAIL-based agents [2]: Example KIs that sensitize cancer cells to TRAIL-based agents.

COc1cccc(-c2cc(=O)c3ccccc3o2)c1N [PD98059]
efficacy when combined with TRAILPEG (relative cell death, KI+TRAILPEG / KI alone) [5]: synergistic efficacy
KIs that sensitize cancer cells to TRAIL-based agents [5]: Example KIs that sensitize cancer cells to TRAIL-based agents.
